Results as given in PubChem BioAssay (NCI).
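Cultured in 96-well plates, cells were exposed to test compound for 48 hours across five concentrations. TGI: total growth inhibition.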

Assays:
Assay in all cases: inhibition of tumour cell growth, NCI panel, 48 h
[1] = system: MDA-N
[2] = system: NCI-H460 lung
[3] = system: NCI-H522 lung
[4] = system: K-562 leukemia
[5] = system: IGROV1 ovarian
[6] = system: MCF7 breast
[7] = system: HOP-92 NSCLC
[8] = system: HS 578T breast
[9] = system: CAKI-1 renal
[10] = system: NCI/ADR-RES ovarian
[11] = system: RPMI-8226 leukemia
[12] = system: MDA-MB-231 breast
[13] = system: SF-295 CNS
[14] = system: SF-539 CNS
[15] = system: UO-31 renal
[16] = system: A549 NSCLC
[17] = system: BT-549 breast
[18] = system: CCRF-CEM leukemia
[19] = system: SNB-19 CNS
[20] = system: HOP-62 NSCLC
[21] = system: NCI-H226 lung
[22] = system: SK-MEL-28 melanoma
[23] = system: UACC-62 melanoma
[24] = system: SR leukemia
[25] = system: SK-OV-3 ovarian
[26] = system: HL-60(TB) leukemia
[27] = system: EKVX NSCLC
[28] = system: SK-MEL-2 melanoma
[29] = system: COLO 205 colon
[30] = system: MOLT-4 leukemia
[31] = system: OVCAR-4 ovarian
[32] = system: 786-0 renal
[33] = system: OVCAR-8 ovarian
[34] = system: OVCAR-5 ovarian
[35] = system: RXF 393 renal
[36] = system: SN12C renal
[37] = system: TK-10 renal
[38] = system: NCI-H23 lung
[39] = system: MALME-3M melanoma
[40] = system: DU-145 prostate
[41] = system: T-47D breast
[42] = system: OVCAR-3 ovarian
[43] = system: A498 renal
[44] = system: LOX IMVI melanoma
[45] = system: U251 CNS
[46] = system: HCC-2998 colon
[47] = system: SW-620 colon
[48] = system: PC-3 prostate
[49] = system: M14 melanoma
[50] = system: KM12 colon
[51] = system: SK-MEL-5 melanoma
[52] = system: UACC-257 melanoma
[53] = system: MDA-MB-435
[54] = system: HCT-116 colon
[55] = system: HCT-15 colon
[56] = system: HT29 colon
[57] = system: ACHN renal
[58] = system: SF-268 CNS
[59] = system: SNB-75 CNS

CCOC(=O)Nc1nc(-c2ccccc2)c(C)s1
TGI [1]: > 100 µM | TGI [2]: > 100 µM | TGI [3]: > 100 µM | TGI [4]: > 100 µM | TGI [5]: > 100 µM | TGI [6]: > 100 µM | TGI [7]: 90.5 µM | TGI [8]: > 100 µM | TGI [9]: > 100 µM | TGI [10]: > 100 µM | TGI [11]: > 100 µM | TGI [12]: > 100 µM | TGI [13]: > 100 µM | TGI [14]: > 100 µM | TGI [15]: > 100 µM | TGI [16]: > 100 µM | TGI [17]: > 100 µM | TGI [18]: > 100 µM | TGI [19]: > 100 µM | TGI [20]: > 100 µM | TGI [21]: > 100 µM | TGI [22]: > 100 µM | TGI [23]: > 100 µM | TGI [24]: > 100 µM | TGI [25]: > 100 µM | TGI [26]: 90.5 µM | TGI [27]: > 100 µM | TGI [28]: > 100 µM | TGI [29]: > 100 µM | TGI [30]: 45.5 µM | TGI [31]: > 100 µM | TGI [32]: > 100 µM | TGI [33]: > 100 µM | TGI [34]: > 100 µM | TGI [35]: > 100 µM | TGI [36]: > 100 µM | TGI [37]: > 100 µM | TGI [38]: > 100 µM | TGI [39]: > 100 µM | TGI [40]: > 100 µM | TGI [41]: > 100 µM | TGI [42]: > 100 µM | TGI [43]: > 100 µM | TGI [44]: > 100 µM | TGI [45]: > 100 µM | TGI [46]: > 100 µM | TGI [47]: > 100 µM | TGI [48]: > 100 µM | TGI [49]: > 100 µM | TGI [50]: > 100 µM | TGI [51]: > 100 µM | TGI [52]: > 100 µM | TGI [53]: > 100 µM | TGI [54]: > 100 µM | TGI [55]: > 100 µM | TGI [56]: > 100 µM | TGI [57]: > 100 µM | TGI [58]: > 100 µM | TGI [59]: > 100 µM

N#Cc1nc(N)c(C#N)[nH]1
TGI [1]: > 100 µM | TGI [2]: > 100 µM | TGI [3]: > 100 µM | TGI [4]: > 100 µM | TGI [5]: > 100 µM | TGI [6]: > 100 µM | TGI [7]: > 100 µM | TGI [8]: > 100 µM | TGI [9]: > 100 µM | TGI [10]: > 100 µM | TGI [11]: > 100 µM | TGI [12]: > 100 µM | TGI [13]: > 100 µM | TGI [14]: > 100 µM | TGI [15]: > 100 µM | TGI [16]: > 100 µM | TGI [17]: > 100 µM | TGI [18]: > 100 µM | TGI [19]: > 100 µM | TGI [20]: > 100 µM | TGI [21]: > 100 µM | TGI [22]: > 100 µM | TGI [23]: > 100 µM | TGI [24]: > 100 µM | TGI [25]: > 100 µM | TGI [26]: > 100 µM | TGI [27]: > 100 µM | TGI [28]: > 100 µM | TGI [29]: > 100 µM | TGI [30]: > 100 µM | TGI [31]: > 100 µM | TGI [32]: > 100 µM | TGI [33]: > 100 µM | TGI [34]: > 100 µM | TGI [35]: > 100 µM | TGI [36]: > 100 µM | TGI [37]: > 100 µM | TGI [38]: > 100 µM | TGI [39]: > 100 µM | TGI [40]: > 100 µM | TGI [41]: > 100 µM | TGI [42]: > 100 µM | TGI [43]: > 100 µM | TGI [44]: > 100 µM | TGI [45]: > 100 µM | TGI [46]: > 100 µM | TGI [47]: > 100 µM | TGI [48]: > 100 µM | TGI [49]: > 100 µM | TGI [50]: > 100 µM | TGI [51]: > 100 µM | TGI [52]: > 100 µM | TGI [53]: > 100 µM | TGI [54]: > 100 µM | TGI [55]: > 100 µM | TGI [56]: > 100 µM | TGI [57]: > 100 µM | TGI [58]: > 100 µM | TGI [59]: > 100 µM
